Test results taken from patent US9303015B2, “Heteroaryl linked quinolinyl modulators of RORγt” (Janssen Pharmaceutica NV, priority 2012, dated 2016).
Where “and” joins values, the source holds several entries; their conditions need not be identical. Equal entries are not always repeated. Structures can show the parent of a compound that is named as a salt.

Experiments:
human RORγt LBD = human RORγt LBD (Homo sapiens (Human), UniProt P51449); assay: RORγt reporter assay (GAL4-RORγt LBD luciferase, HEK293T cells); assay type: cell-based; settings: for RORγt reporter Assay, % inhibition @ 6 μM / IC50: HEK293T cells; for IC50: 24 hours compound treatment; for inhibition at 6 µM: HEK-293T, read-out: RORγt reporter Assay, % inhibition @ 6 μM, 6 μM, HEK293T cells
Sequence of human RORγt LBD (P51449 258-518): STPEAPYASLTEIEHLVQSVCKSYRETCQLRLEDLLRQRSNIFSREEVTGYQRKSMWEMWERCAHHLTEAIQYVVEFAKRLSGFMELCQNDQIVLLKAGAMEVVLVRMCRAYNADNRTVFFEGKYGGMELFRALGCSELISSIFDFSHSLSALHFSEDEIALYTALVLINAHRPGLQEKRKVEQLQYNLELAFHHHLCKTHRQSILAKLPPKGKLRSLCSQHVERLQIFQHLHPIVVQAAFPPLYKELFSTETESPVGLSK

[1] = molecular target: human RORγt ligand binding domain (RORγt LBD) (Homo sapiens (Human), UniProt P51449); assay: RORγt ThermoFluor assay (thermal shift, binding affinity); settings: estimated from thermal shift concentration response
Sequence of human RORγt ligand binding domain (RORγt LBD) (P51449 other isoform, or with tags, fused parts or gaps): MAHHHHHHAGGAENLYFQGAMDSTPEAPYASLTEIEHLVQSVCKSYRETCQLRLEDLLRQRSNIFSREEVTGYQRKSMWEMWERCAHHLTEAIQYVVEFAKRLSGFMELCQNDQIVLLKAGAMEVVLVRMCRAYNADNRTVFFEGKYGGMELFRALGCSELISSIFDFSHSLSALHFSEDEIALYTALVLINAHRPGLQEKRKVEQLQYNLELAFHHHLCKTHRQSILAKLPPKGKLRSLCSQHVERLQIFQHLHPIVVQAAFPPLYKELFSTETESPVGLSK
Procedure: This approach is applicable to a wide variety of systems, and rigorous in theoretical interpretation through quantitation of equilibrium binding constants (KD).
The shift in the melting point described as a ΔTm is proportional to the concentration and affinity of the ligand.
ThermoFluor® experiments were carried out using instruments owned by Janssen Research and Discovery, L.L.C. through its acquisition of 3-Dimensional Pharmaceuticals, Inc. 1,8-ANS (Invitrogen) was used as a fluorescent dye. Protein and compound solutions are dispensed into black 384-well polypropylene PCR microplates (Abgene) and overlayed with silicone oil (1 μL, Fluka, type DC 200) to prevent evaporation.
Bar-coded assay plates are robotically loaded onto a thermostatically controlled PCR-type thermal block and then heated at a typical ramp-rate of 1° C./min for all experiments. Fluorescence was measured by continuous illumination with UV light (Hamamatsu LC6) supplied via fiber optic and filtered through a band-pass filter (380-400 nm; >60D cutoff). Fluorescence emission of the entire 384-well plate was detected by measuring light intensity using a CCD camera (Sensys, Roper Scientific) filtered to detect 500±25 nm, resulting in simultaneous and independent readings of all 384 wells. Images were collected at each temperature, and the sum of the pixel intensity in a given area of the assay plate was recorded versus temperature. Reference wells contained RORγt without compounds, and the assay conditions were as follows: • 0.065 mg/mL RORγt • 60 μM 1,8-ANS • 100 mM Hepes, pH 7.0 • 10 mM NaCl • 2.5 mM GSH • 0.002% Tween-20
Project compounds were arranged in a pre-dosed mother plate (Greiner Bio-one) wherein compounds are serially diluted in 100% DMSO by 1:2 from a high concentration of 10 mM over 12 columns within a series (column 12 is a reference well containing DMSO, no compound). The compounds were robotically dispensed directly into assay plates (1x=[…]) using a Hummingbird capillary liquid handling instrument (Digilab). Following compound dispense, protein and dye in buffer was added to achieve the final assay volume of 3 μL, followed by 1 μL of silicone oil.

[2] = tested on: IL-17 production by CD4 T cells; assay: Human Th17 assay; assay type: cell-based; settings: Homo sapiens, CD4+ T, 72 h, IL-17 in supernatant after 3 days, human CD4+ T cells under Th17 differentiation
Excerpt: The human Th17 assay tests the effect of RORγt modulatory compounds on IL-17 production by CD4 T cells under conditions which favor Th17 differentiation.
Total CD4^+ T cells were isolated from the peripheral blood mononuclear cells (PBMC) of healthy donors using a CD4^+ T cell isolation kit II, following the manufacturer's instructions (Miltenyi Biotec). Cells were resuspended in a medium of RPMI-1640 supplemented with 10% fetal bovine serum, penicillin, streptomycin, glutamate, and β-mercaptoethanol and were added to 96-well plates at 1.5×10^5 per 100 μL per well. 50 μL of compound at titrated concentrations in DMSO were added into each well at final DMSO concentration at 0.2%. Cells were incubated for 1 hour, then 50 μL of Th17 cell differentiation medium was added to each well. The final concentrations of antibodies and cytokines (R&D Systems) in differentiation medium were: 3×10^6/mL anti-CD3/CD28 beads (prepared using human T cell activation/expansion kit, Miltenyi Biotec), 10 μg/mL anti-IL4, 10 μg/mL anti-IFNγ, 10 ng/mL IL113, 10 ng/mL IL23, 50 ng/mL IL6, 3 ng/mL TGFβ and 20 U/mL IL2. Cells were cultured at 37° C. and 5% CO2 for 3 days. Supernatants were collected and the accumulated IL-17 in culture was measured by using MULTI-SPOT® Cytokine Plate following manufacture's instruction (Meso Scale Discovery). The plate was read using Sector Imager 6000, and IL-17 concentration was extrapolated from the standard curve. The IC50s were determined by GraphPad.

Row | RORγt reporter Assay, % inhibition @ 6 μM (human RORγt LBD) [%] | IC50 (human RORγt LBD) | Kd [1] [µM] | inhibition at 6 µM (human RORγt LBD) [%] | IC50 [2] [µM] | Compound
1 | 48 | ~6 µM and > 6 µM | 0.0029 |  |  | Cn1cncc1C(O)(c1ccc(C(F)(F)F)nc1)c1ccc2nc(C#N)c(Oc3ccccc3)c(C#N)c2c1 (single isomer, unassigned) [Example 22b, 6-(Hydroxy(1-methyl-1H-imidazol-5-yl)(6-(trifluoromethyl)pyridin-3-yl)methyl)-3-phenoxyquinoline-2,4-dicarbonitrile]
2 | 88 | 0.68 µM | 0.097 |  |  | Cn1cncc1C(O)(c1ccc(C(F)(F)F)nc1)c1ccc2nc(C#N)c(Oc3ccccc3)c(C#N)c2c1 (single isomer, unassigned) [Example 22c, 6-(Hydroxy(1-methyl-1H-imidazol-5-yl)(6-(trifluoromethyl)pyridin-3-yl)methyl)-3-phenoxyquinoline-2,4-dicarbonitrile]
3 |  | 0.67 µM | 0.11 | 86 |  | Cn1cncc1C(O)(c1ccc(Cl)cc1)c1ccc2nc(Cl)c(Oc3ccccc3)c(Cl)c2c1 (stereo not shown) [Example 1, (4-Chlorophenyl)(2,4-dichloro-3-phenoxyquinolin-6-yl)(1-methyl-1H-imidazol-5-yl)methanol]
4 |  | 0.12 µM | 0.059 | 96 | 0.2 | CCN(CC)c1nc2ccc(C(O)(c3ccc(Cl)cc3)c3cncn3C)cc2c(Cl)c1Oc1ccccc1 (stereo not shown) [Example 3a, (4-Chloro-2-(diethylamino)-3-phenoxyquinolin-6-yl)(4-chlorophenyl)(1-methyl-1H-imidazol-5-yl)methanol]
5 |  | 0.36 µM | 0.031 | 94 | 0.1 | CN(C)c1nc2ccc(C(O)(c3ccc(Cl)cc3)c3cncn3C)cc2c(Cl)c1Oc1ccccc1 (stereo not shown) [Example 16, (4-Chloro-2-(dimethylamino)-3-phenoxyquinolin-6-yl)(4-chlorophenyl)(1-methyl-1H-imidazol-5-yl)methanol]
6 |  | 0.11 µM | 0.0057 | 97 | 0.04 | Cn1cncc1C(O)(c1ccc(Cl)cc1)c1ccc2nc(C#N)c(Oc3ccccc3)c(C#N)c2c1 (stereo not shown) [Example 20, 6-((4-chlorophenyl)(hydroxy)(1-methyl-1H-imidazol-5-yl)methyl)-3-phenoxyquinoline-2,4-dicarbonitrile.TFA]
7 |  | 0.14 µM | 0.0018 | 93 |  | Cn1cncc1C(O)(c1ccc(C(F)(F)F)nc1)c1ccc2nc(N3CCC3)c(Oc3ccc(Cl)cc3)c(Cl)c2c1 (stereo not shown) [Example 30a, (2-(Azetidin-1-yl)-4-chloro-3-(4-chlorophenoxy)quinolin-6-yl)(1-methyl-1H-imidazol-5-yl)(6-(trifluoromethyl)pyridin-3-yl)methanol]
8 |  | 0.089 µM | 0.032 | 89 | 0.16 | CCOc1nc2ccc(C(O)(c3cccnc3)c3cccc(Cl)c3)cc2c(Cl)c1N(C)c1ccccc1 (stereo not shown) [Example 36, (4-Chloro-2-ethoxy-3-(methyl(phenyl)amino)quinolin-6-yl)(3-chlorophenyl) (pyridin-3-yl)methanol.TFA]
9 |  | 0.52 µM and ~1 µM | 0.035 | 85 |  | CN(c1ccccc1)c1c(Cl)nc2ccc(C(O)(c3ccc(Cl)cc3)c3cncn3C)cc2c1Cl (stereo not shown) [Example 38, (4-Chlorophenyl)(2,4-dichloro-3-(methyl(phenyl)amino)quinolin-6-yl)(1-methyl-1H-imidazol-5-yl)methanol]
10 |  | 0.81 µM | 0.27 | 91 |  | CCN(CC)c1nc2ccc(C(O)(c3ccc(Cl)cc3)c3cncn3C)cc2c(Cl)c1Nc1ccccc1 (stereo not shown) [Example 45, (4-Chloro-2-(diethylamino)-3-(phenylamino)quinolin-6-yl)(4-chlorophenyl)(1-methyl-1H-imidazol-5-yl)methanol.TFA]
